Assay results taken from publication PMC9182211, “Structural Investigation of the Interaction Mechanism between Chlorogenic Acid and AMPA Receptor via In Silico Approaches” (Molecules, 2022).

Target: T1, GluA1 (glutamate ionotropic receptor AMPA type subunit 1) (Homo sapiens, UniProt P42261)
T1 construct: gene GRIA1; Recombinant human GluA1 (AMPA subtype) protein (Abcam ab112297)
Experiment: SPR (Biacore T200, GluA1 immobilized on CM5 chip, steady-state fit)
Format: binding

T1 sequence (P42261 19-906): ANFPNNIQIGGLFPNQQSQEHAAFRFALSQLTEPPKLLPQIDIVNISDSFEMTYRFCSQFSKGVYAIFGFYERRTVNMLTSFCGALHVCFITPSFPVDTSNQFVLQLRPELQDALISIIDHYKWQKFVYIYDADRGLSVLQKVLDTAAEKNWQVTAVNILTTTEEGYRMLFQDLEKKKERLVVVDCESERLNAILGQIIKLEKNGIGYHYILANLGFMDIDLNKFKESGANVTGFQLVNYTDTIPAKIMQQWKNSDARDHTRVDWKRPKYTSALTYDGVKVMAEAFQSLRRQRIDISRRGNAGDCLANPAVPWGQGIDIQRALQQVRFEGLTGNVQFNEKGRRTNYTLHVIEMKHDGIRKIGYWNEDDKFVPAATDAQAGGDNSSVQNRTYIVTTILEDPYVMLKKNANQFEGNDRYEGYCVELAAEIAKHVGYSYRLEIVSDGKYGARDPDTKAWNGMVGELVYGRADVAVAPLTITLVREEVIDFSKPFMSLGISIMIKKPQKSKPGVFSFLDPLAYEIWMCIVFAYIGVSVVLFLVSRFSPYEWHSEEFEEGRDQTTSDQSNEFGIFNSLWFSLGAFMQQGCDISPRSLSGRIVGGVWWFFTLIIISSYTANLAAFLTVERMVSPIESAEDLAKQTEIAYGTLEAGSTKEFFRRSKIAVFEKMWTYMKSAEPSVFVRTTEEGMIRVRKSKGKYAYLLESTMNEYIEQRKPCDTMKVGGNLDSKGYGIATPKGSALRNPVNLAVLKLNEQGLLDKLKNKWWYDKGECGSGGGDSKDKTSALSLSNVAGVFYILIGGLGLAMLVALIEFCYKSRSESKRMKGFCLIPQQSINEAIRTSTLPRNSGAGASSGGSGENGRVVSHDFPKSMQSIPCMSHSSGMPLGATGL

Compound `O=C(/C=C/c1ccc(O)c(O)c1)O[C@@H]1C[C@](O)(C(=O)O)C[C@@H](O)[C@H]1O` [CGA, (1S,3R,4R,5R)-3-[(E)-3-(3,4-dihydroxyphenyl)prop-2-enoyl]oxy-1,4,5-trihydroxycyclohexane-1-carboxylic acid] has a Kd of 496 µM.
